Measured values: PubChem BioAssay AID2060498 (Molecular Pharmacology Branch, DTP, NCI, 2025)

Tested on: 171881-019-R-J1-PDC tumor spheroids, viability
Experiment: Anticancer human tumor 171881-019-R-J1-PDC patient-derived invasive breast carcinoma cell line growth inhibition [GQUAD]
Settings: spheroids with HUVEC and MSC; for IC50: curve of first compound; for viability, T/C: stronger effect = lower value
Summary of the method: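 Multi-cell-type spheroids of tumor cells with HUVEC and mesenchymal stem cells, treated with drug combinations. Concentrations descend in half-log steps from near clinical Cmax, or from 10 microM where Cmax is unknown; viability read-out.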
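Note: spheroids exposed to compounds for 7 days.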
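Throughout, for viability, T/C: 100% = DMSO vehicle control viability.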

- IC50 (second compound 0.0316 µM): > 10 µM
- IC50 (second compound 0.1 µM): > 10 µM
- IC50 (second compound 0.316 µM): > 10 µM
- IC50 (second compound 1 µM): > 10 µM
- IC50 (second compound 3.16 µM): > 10 µM
- IC50 (second compound 10 µM): > 10 µM
SMILES: Cc1cccc(N(C)C(=O)C2C(O)CCN2c2nc(C)cc(C(F)(F)F)c2C#N)c1 (configuration not stated) + Cc1cnc(CNC(=O)c2c(=O)c3ccc(N4CCCN(C)CC4)nc3n3c2sc2ccccc23)cn1
- viability, T/C (second compound 0.0316 µM, first compound 0.0316 µM): 105%
- viability, T/C (second compound 0.0316 µM, first compound 0.1 µM): 87.2%
- viability, T/C (second compound 0.0316 µM, first compound 0.316 µM): 90.4%
- viability, T/C (second compound 0.0316 µM, first compound 1 µM): 92.2%
- viability, T/C (second compound 0.0316 µM, first compound 3.16 µM): 88.5%
- viability, T/C (second compound 0.0316 µM, first compound 10 µM): 79.7%
- viability, T/C (second compound 0.1 µM, first compound 0.0316 µM): 86.9%
- viability, T/C (second compound 0.1 µM, first compound 0.1 µM): 88%
- viability, T/C (second compound 0.1 µM, first compound 0.316 µM): 77.6%
- viability, T/C (second compound 0.1 µM, first compound 1 µM): 76.2%
- viability, T/C (second compound 0.1 µM, first compound 3.16 µM): 80.6%
- viability, T/C (second compound 0.1 µM, first compound 10 µM): 79.5%
- viability, T/C (second compound 0.316 µM, first compound 0.0316 µM): 73.5%
- viability, T/C (second compound 0.316 µM, first compound 0.1 µM): 73.1%
- viability, T/C (second compound 0.316 µM, first compound 0.316 µM): 75.8%
- viability, T/C (second compound 0.316 µM, first compound 1 µM): 69.7%
- viability, T/C (second compound 0.316 µM, first compound 3.16 µM): 77.7%
- viability, T/C (second compound 0.316 µM, first compound 10 µM): 69%
- viability, T/C (second compound 1 µM, first compound 0.0316 µM): 67.5%
- viability, T/C (second compound 1 µM, first compound 0.1 µM): 66.5%
- viability, T/C (second compound 1 µM, first compound 0.316 µM): 71.1%
- viability, T/C (second compound 1 µM, first compound 1 µM): 66.4%
- viability, T/C (second compound 1 µM, first compound 3.16 µM): 74.2%
- viability, T/C (second compound 1 µM, first compound 10 µM): 70.3%
- viability, T/C (second compound 3.16 µM, first compound 0.0316 µM): 65.3%
- viability, T/C (second compound 3.16 µM, first compound 0.1 µM): 60.9%
- viability, T/C (second compound 3.16 µM, first compound 0.316 µM): 63.1%
- viability, T/C (second compound 3.16 µM, first compound 1 µM): 55.9%
- viability, T/C (second compound 3.16 µM, first compound 3.16 µM): 68.8%
- viability, T/C (second compound 3.16 µM, first compound 10 µM): 67.8%
- viability, T/C (second compound 10 µM, first compound 0.0316 µM): 60.9%
- viability, T/C (second compound 10 µM, first compound 0.1 µM): 66.7%
- viability, T/C (second compound 10 µM, first compound 0.316 µM): 61.3%
- viability, T/C (second compound 10 µM, first compound 1 µM): 66.2%
- viability, T/C (second compound 10 µM, first compound 3.16 µM): 67.6%
- viability, T/C (second compound 10 µM, first compound 10 µM): 66.8%
